The text below walks through data of patent US8426420B2, “Heterocyclic pyrazole-carboxamidesas P2Y12 antagonists” (Sanofi, priority 2007, dated 2013).

The target in one test is human P2Y12 receptor (Homo sapiens, UniProt Q9H244). Nature of the test: Human P2Y12 recombinant cell membrane binding assay with 33P 2MeS-ADP. To be noted: competition against 33P 2MeS-ADP, membranes of CHO cells with recombinant human P2Y12 receptor. The essentials: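 Competition binding against radiolabeled 2MeS-ADP (1.61 nM as added) on membranes from recombinant human P2Y12 CHO cells, 20 min RT after 15 min compound preincubation, pH 7.4. Filtration then scintillation counting; compounds tested in triplicate from 10 μM final, five-fold dilutions, curve fit with plate-defined min/max.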
Sequence of human P2Y12 receptor (Q9H244 whole entry): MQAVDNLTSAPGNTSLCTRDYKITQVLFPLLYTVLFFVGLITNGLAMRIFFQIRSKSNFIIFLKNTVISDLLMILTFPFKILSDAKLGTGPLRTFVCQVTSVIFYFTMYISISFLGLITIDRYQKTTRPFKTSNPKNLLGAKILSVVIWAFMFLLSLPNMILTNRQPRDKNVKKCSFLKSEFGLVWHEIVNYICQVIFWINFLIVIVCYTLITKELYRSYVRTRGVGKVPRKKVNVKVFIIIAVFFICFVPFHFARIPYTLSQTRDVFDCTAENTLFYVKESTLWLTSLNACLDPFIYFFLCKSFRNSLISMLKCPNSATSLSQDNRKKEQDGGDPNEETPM

For test [1], the system named is human platelet rich plasma. Nature of the test: Inhibition of human platelet aggregation, 96-well assay. The class given is cell-based. To be noted: Homo sapiens, Platelet, 20 min. The method in brief: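 ADP-induced aggregation read as 650 nm absorbance every minute for 20 min at 37 °C, with shaking between reads. PRP (~3×E8 platelets/ml, diluted with PPP, ACD-A blood from healthy volunteers) was exposed to compound for 5 min before adding a 40 μM ADP stock (15 μl into 150 μl).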

For test [2], the system named is human platelet rich plasma. Nature of the test: Inhibition of human platelet aggregation, "Born"-method using single cuvettes. The class given is cell-based. The settings on record: 0.1 h, ADP-induced aggregation, 6 minutes. On the procedure: Inhibition of Human Platelet Aggregation
Alternatively to a binding assay which measures a compound's ability to bind to the P2Y12 receptor, the effect on cellular function was also determined. This ability of the compound was evaluated in two platelet aggregation assays: in 96-well plates and with the “Born”-method using single cuvettes.
Whole blood was collected from healthy volunteers using 20 ml syringes containing 2 ml of buffered Citrate. The anticoagulated whole blood was transferred into 15 ml polypropylene conical tubes (10 ml per tube). The tubes were centrifuged for 15 minutes at 340×g at RT without using the centrifuge brake. This procedure leads to a pellet of cellular components and a supernatant of platelet rich plasma (PRP). The PRP layer was collected from each tube and pooled for each donor. To avoid carry over of cellular components following centrifugation, approximately 5 ml of PRP was left in the tube. The platelet concentration was determined using a Coulter Counter.
The 15 ml tubes containing the pellet of cellular components were centrifuged again for 10 minutes at 1940×g. This pelleted out most particulate blood constituents remaining, leaving a layer of Platelet Poor Plasma (PPP). The PPP was collected for each donor. The PRP layer, previously set aside, was diluted with PPP to a final concentration of approximately 3×E8 platelets/ml with the PPP.
The human platelet aggregation assay is performed in single use cuvettes using the platelet aggregation profiler (PAP-4 or -8, Bio/Data corporation).
In the assay cuvette 4 μl of test compound at 100× final concentration in DMSO is mixed with 392 μl fresh PRP and incubated for 2 minutes at 37° C. with 1.200 rpm stirring. Following that incubation period, 4 μl of 250 μM ADP is added to the reaction mix. This addition of ADP is sufficient to induce aggregation in the absence of an inhibitor. After that aggregation is measured over 6 minutes at 37° C. with 1.200 rpm stirring. Results of the assay are expressed as % inhibition, and are calculated using maximum aggregation (Tmax) or area under curve (AUC) of the absorbance over 6 minutes.
The IC50 data of the above described platelet aggregation assay using human platelet rich plasma for exemplary compounds of the present invention are shown in table 3.

As to `CCCNC(=O)[C@@H]1CCCN1C(=O)COc1cc(C(=O)N[C@@H](CCC(=O)O)C(=O)N2CCN(C(=O)OCC)CC2)nn1-c1ccccc1` [Example 9, 4-{(S)-4-Carboxy-2-[(5-{2-[(S)-2-propylcarbamoyl-pyrrolidin-1-yl]-2-oxo-ethoxy}-1-phenyl-1H-pyrazole-3-carbonyl)-amino]-butyryl}-piperazine-1-carboxylic acid ethyl ester], the figures for the IC50 (on human P2Y12 receptor; in test [1]; in test [2]) were 172 nM, 60 nM and 91 nM, respectively.
For `CCOC(=O)N1CCN(C(=O)[C@H](CCC(=O)O)NC(=O)c2cc(O[C@H](C)C(=O)N3CCC[C@H]3C(=O)NC3CC3)n(-c3ccccc3)n2)CC1` [Example 61, 4-[(S)-4-Carboxy-2-({5-[(R)-2-((S)-2-cyclopropylcarbamoyl-pyrrolidin-1-yl)-1-methyl-2-oxo-ethoxy]-1-phenyl-1H-pyrazole-3-carbonyl}-amino)-butyryl]-piperazine-1-carboxylic acid ethyl ester] the same measures were 93 nM, 50 nM and 180 nM.
Regarding `CCOC(=O)N1CCN(C(=O)[C@H](CCO)NC(=O)c2cc(OCC(=O)N3CCC[C@H]3C(=O)NC3CCC3)n(-c3ccccc3)n2)CC1` [Example 115, 4-[(S)-2-({5-[2-((S)-2-Cyclobutylcarbamoyl-pyrrolidin-1-yl)-2-oxo-ethoxy]-1-phenyl-1H-pyrazole-3-carbonyl}-amino)-4-hydroxy-butyryl]-piperazine-1-carboxylic acid ethyl ester], the IC50 (in general, the concentration that inhibits the measured activity by half) at human P2Y12 receptor was 59 nM; in test [1], 210 nM; in test [2] it was 120 nM.
The like results for `CCCOC(=O)N1CCN(C(=O)[C@H](CCC(=O)O)NC(=O)c2cc(OCC(=O)N3CCC[C@H]3C(=O)NC3CCC3)n(-c3ccccc3)n2)CC1` [Example 162, 4-[(S)-4-Carboxy-2-({5-[2-((S)-2-cyclobutylcarbamoyl-pyrrolidin-1-yl)-2-oxo-ethoxy]-1-phenyl-1H-pyrazole-3-carbonyl}-amino)-butyryl]-piperazine-1-carboxylic acid propyl ester] were, in that order, 8 nM, 20 nM and 33 nM.
For `CCOC(=O)N1CCN(C(=O)[C@H](CCC(=O)O)NC(=O)c2cc(OCC(=O)N3CCC[C@H]3C(=O)NCC3CCC3)n(-c3ccccc3)n2)CC1` [Example 20, 4-{(S)-4-Carboxy-2-[(5-{2-[(S)-2-(cyclobutylmethyl-carbamoyl)-pyrrolidin-1-yl]-2-oxo-ethoxy}-1-phenyl-1H-pyrazole-3-carbonyl)-amino]-butyryl}-piperazine-1-carboxylic acid ethyl ester] the same measures were 50 nM, 100 nM and 72 nM.
Regarding `CCCCOC(=O)N1CCN(C(=O)[C@H](CCOC)NC(=O)c2cc(OCC(=O)N3CCC[C@H]3C(=O)NC3CCC3)n(-c3ccccc3)n2)CC1` [Example 231, 4-[(S)-2-({5-[2-((S)-2-Cyclobutylcarbamoyl-pyrrolidin-1-yl)-2-oxo-ethoxy]-1-phenyl-1H-pyrazole-3-carbonyl}-amino)-4-methoxy-butyryl]-piperazine-1-carboxylic acid butyl ester], the results for the IC50 (at human P2Y12 receptor; in test [1]; in test [2]) were 19 nM, 70 nM and 30 nM, respectively.
For the compound `CCCCOC(=O)N1CCN(C(=O)[C@H](CCCO)NC(=O)c2cc(OCC(=O)N3CCC[C@H]3C(=O)NC3CCC3)n(-c3ccccc3)n2)CC1` [Example 178, 4-[(S)-2-({5-[2-((S)-2-Cyclobutylcarbamoyl-pyrrolidin-1-yl)-2-oxo-ethoxy]-1-phenyl-1H-pyrazole-3-carbonyl}-amino)-5-hydroxy-pentanoyl]-piperazine-1-carboxylic acid butyl ester], the half-inhibitory concentration (IC50) came out at 17 nM at human P2Y12 receptor and 70 nM in test [2].
The like results for `CCOC(=O)N1CCN(C(=O)[C@H](CCC(=O)O)NC(=O)c2cc(OCC(=O)N3CCC[C@H]3C(=O)NC(C)C)n(-c3ccccc3)n2)CC1` [Example 10, 4-{(S)-4-Carboxy-2-[(5-{2-[(S)-2-isopropylcarbamoyl-pyrrolidin-1-yl]-2-oxo-ethoxy}-1-phenyl-1H-pyrazole-3-carbonyl)-amino]-butyryl}-piperazine-1-carboxylic acid ethyl ester] were, in that order, 146 nM and 340 nM.
For `CCOC(=O)N1CCN(C(=O)[C@H](CCC(=O)O)NC(=O)c2cc(O[C@H](C)C(=O)N3CCC[C@H]3C(=O)NCC3CC3)n(-c3ccccc3)n2)CC1` [Example 63, 4-[(S)-4-Carboxy-2-({5-[(R)-2-((S)-2-cyclopropylmethylcarbamoyl-pyrrolidin-1-yl)-1-methyl-2-oxo-ethoxy]-1-phenyl-1H-pyrazole-3-carbonyl}-amino)-butyryl]-piperazine-1-carboxylic acid ethyl ester] the same measures were 41 nM and 20 nM.
For `CCOC(=O)N1CCN(C(=O)[C@H](CCC(=O)O)NC(=O)c2cc(O[C@H](C)C(=O)N3CCC[C@H]3C(=O)NCC(F)(F)F)n(-c3ccccc3)n2)CC1` [Example 65, 4-[(S)-4-Carboxy-2-({5-[(R)-2-((S)-2-(2,2,2-trifluoroethylcarbamoyl)-pyrrolidin-1-yl)-1-methyl-2-oxo-ethoxy]-1-phenyl-1H-pyrazole-3-carbonyl}-amino)-butyryl]-piperazine-1-carboxylic acid ethyl ester] the same measures were 55 nM and 120 nM.
Regarding `CCCOC(=O)N1CCN(C(=O)CNC(=O)c2cc(OCC(=O)N3CCC[C@H]3C(=O)NC3CCC3)n(-c3ccccc3)n2)CC1` [Example 210, 4-[2-({5-[2-((S)-2-Cyclobutylcarbamoyl-pyrrolidin-1-yl)-2-oxo-ethoxy]-1-phenyl-1H-pyrazole-3-carbonyl}-amino)-acetyl]-piperazine-1-carboxylic acid propyl ester], the figures for the half-inhibitory concentration (IC50) (at human P2Y12 receptor; in test [1]; in test [2]) were 72 nM, 120 nM and 30 nM, respectively.
Turning to `CCOC(=O)N1CCN(C(=O)[C@H](CCC(=O)O)NC(=O)c2cc(OCC(=O)N3CCC[C@H]3C(=O)NCC(F)(F)F)n(-c3ccccc3)n2)CC1` [Example 2, 4-{(S)-4-Carboxy-2-[(5-{2-oxo-2-[(S)-2-(2,2,2-trifluoroethyl-carbamoyl)pyrrolidin-1-yl]-ethoxy}-1-phenyl-1H-pyrazole-3-carbonyl)-amino]-butyryl}-piperazine-1-carboxylic acid ethyl ester], the IC50 at human P2Y12 receptor came out at 120 nM; in test [2], 11 nM.
For the compound `CCCCOC(=O)N1CCN(C(=O)CNC(=O)c2cc(O[C@H](C)C(=O)N3CCC[C@H]3C(=O)NC3CCC3)n(-c3ccccc3)n2)CC1` [Example 269, 4-[2-({5-[(R)-2-((S)-2-Cyclobutylcarbamoyl-pyrrolidin-1-yl)-1-methyl-2-oxo-ethoxy]-1-phenyl-1H-pyrazole-3-carbonyl}-amino)-acetyl]-piperazine-1-carboxylic acid butyl ester], the IC50 at human P2Y12 receptor was 3 nM; in test [2], 50 nM.
For `CCCCOC(=O)N1CCN(C(=O)[C@H](CCC(=O)O)NC(=O)c2cc(OCC(=O)N3CCC[C@H]3C(=O)N(C)C3CCC3)n(-c3ccccc3)n2)CC1` [Example 124, 4-{(S)-4-Carboxy-2-[(5-{2-[(S)-2-(cyclobutyl-methyl-carbamoyl)-pyrrolidin-1-yl]-2-oxo-ethoxy}-1-phenyl-1H-pyrazole-3-carbonyl)-amino]-butyryl}-piperazine-1-carboxylic acid butyl ester] the same measures were 71 nM and 20 nM.
